# Assay results taken from patent US9113629B2, “4-amino-6-(4-substituted-phenyl)-picolinates and 6-amino-2-(4-substituted-phenyl)-pyrimidine-4-carboxylates and their use as herbicides” (DOW AGROSCIENCES LLC, priority 2013, dated 2015).
# Read-outs that look alike come from different tables or passages of the source.
# Experiments:
# [1] = test system: Key Broadleaf Weed and Crop Species; experiment: Post-emergent Test II herbicidal activity (Table 5); type: in vivo; conditions: post-emergence, 336 h, post-emergent, 14 days after application; for pest or weed control at 70 g/ha: 70 g ai/ha; for pest or weed control at 140 g/ha: 140 g ai/ha
# Outline: (§1)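 Foliar application at 187 L/ha to greenhouse-grown seedlings (first or second true leaf); subirrigation thereafter. Visual 0–100% injury at 14 d relative to untreated plants.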
# [2] = test system: Key Grass and Sedge Weeds as well as Grass Crops; experiment: Post-emergent Test II herbicidal activity (Table 6); type: in vivo; conditions: post-emergence, 336 h; for pest or weed control at 70 g/ha: application rate 70 g ai/ha; for pest or weed control at 140 g/ha: application rate 140 g ai/ha
# Outline: as §1
# [3] = ABUTH: velvetleaf (Abutilon theophrasti), read-out: Visual Growth Reduction (%) 14 Days After Application ABUTH
# [4] = AMARE: redroot pigweed (Amaranthus retroflexus), read-out: Visual Growth Reduction (%) 14 Days After Application AMARE
# [5] = BRSNN: oilseed-rape, canola (Brassica napus), read-out: Visual Growth Reduction (%) 14 Days After Application BRSNN
# [6] = CHEAL: lambsquarters (Chenopodium album), read-out: Visual Growth Reduction (%) 14 Days After Application CHEAL
# [7] = EPHHL: wild poinsettia (Euphorbia heterophylla), read-out: Visual Growth Reduction (%) 14 Days After Application EPHHL
# [8] = HELAN: sunflower (Helianthus annuus), read-out: Visual Growth Reduction (%) 14 Days After Application HELAN
# [9] = VIOTR: wild pansy (Viola tricolor), read-out: Visual Growth Reduction (%) 14 Days After Application VIOTR
# [10] = Triticum aestivum, TRZSS (wheat), read-out: Visual Growth Reduction (%) 14 Days After Application, TRZSS
# [11] = CYPES: yellow nutsedge (Cyperus esculentus), read-out: Visual Growth Reduction (%) 14 Days After Application, CYPES
# [12] = DIGSA: crabgrass (Digitaria sanguinalis), read-out: Visual Growth Reduction (%) 14 Days After Application, DIGSA
# [13] = ECHCG: barnyardgrass (Echinochloa crus-galli), read-out: Visual Growth Reduction (%) 14 Days After Application, ECHCG
# [14] = ORYSA: rice (Oryza sativa), read-out: Visual Growth Reduction (%) 14 Days After Application, ORYSA
# [15] = SETFA: giant foxtail (Setaria faberi), read-out: Visual Growth Reduction (%) 14 Days After Application, SETFA
# [16] = SORVU: grain sorghum (Sorghum vulgare), read-out: Visual Growth Reduction (%) 14 Days After Application, SORVU
# [17] = ZEAMX: maize, corn (Zea mays), read-out: Visual Growth Reduction (%) 14 Days After Application, ZEAMX
smiles,measurement,setting,value
"COc1c(N)nc(-c2ccc(I)c(F)c2)nc1C(=O)O [Compound 37, 6-Amino-2-(3-fluoro-4-iodophenyl)-5-methoxypyrimidine-4-carboxylic acid]",pest or weed control at 70 g/ha,[1]; [3],45 to 59%
same,pest or weed control at 140 g/ha,[1]; [3],60 to 74%
same,pest or weed control at 70 g/ha,[1]; [4],85 to 94%
same,pest or weed control at 140 g/ha,[1]; [4],85 to 94%
same,pest or weed control at 70 g/ha,[1]; [5],95 to 100%
same,pest or weed control at 140 g/ha,[1]; [5],95 to 100%
same,pest or weed control at 70 g/ha,[1]; [6],95 to 100%
same,pest or weed control at 140 g/ha,[1]; [6],95 to 100%
same,pest or weed control at 70 g/ha,[1]; [7],95 to 100%
same,pest or weed control at 140 g/ha,[1]; [7],95 to 100%
same,pest or weed control at 70 g/ha,[1]; [8],85 to 94%
same,pest or weed control at 140 g/ha,[1]; [8],85 to 94%
same,pest or weed control at 70 g/ha,[1]; [9],95 to 100%
same,pest or weed control at 140 g/ha,[1]; [9],95 to 100%
same,pest or weed control at 70 g/ha,[2]; [10],45 to 59%
same,pest or weed control at 140 g/ha,[2]; [10],60 to 74%
same,pest or weed control at 70 g/ha,[2]; [11],0 to 29%
same,pest or weed control at 140 g/ha,[2]; [11],0 to 29%
same,pest or weed control at 70 g/ha,[2]; [12],45 to 59%
same,pest or weed control at 140 g/ha,[2]; [12],60 to 74%
same,pest or weed control at 70 g/ha,[2]; [13],75 to 84%
same,pest or weed control at 140 g/ha,[2]; [13],75 to 84%
same,pest or weed control at 70 g/ha,[2]; [14],0 to 29%
same,pest or weed control at 140 g/ha,[2]; [14],0 to 29%
same,pest or weed control at 70 g/ha,[2]; [15],0 to 29%
same,pest or weed control at 140 g/ha,[2]; [15],60 to 74%
same,pest or weed control at 70 g/ha,[2]; [16],75 to 84%
same,pest or weed control at 140 g/ha,[2]; [16],85 to 94%
same,pest or weed control at 70 g/ha,[2]; [17],0 to 29%
same,pest or weed control at 140 g/ha,[2]; [17],45 to 59%
